Experimental data: patent US20080069869A1, “Formulations and methods for modulating satiety” (priority 2004, published 2008)
Where two headings read alike, the source gives them in different places.

Key:
[1] = cited from earlier work
[2] = Pharmacokinetic study: plasma CCK-8 levels after one oral enteric-coated capsule (Example 3); assay type: in vivo, human
Experimental: Secondarily, it was desired to ascertain the time it would take to reach peak plasma levels. Each individual ingested the capsule in the fasting state (not having eaten for at least 8 hours). Blood was then drawn every 10 minutes for one hour. […] Plasma was drawn off from each tube and frozen. The frozen plasma was sent to Mt. Sinai Hospital in Canada for measurement of CCK-8 levels.

[3] = in vivo; cited from earlier work
[4] = test system: pancreatic amylase secretion; details: Crawley and Corwin; cited from earlier work
[5] = target: T1, CCKA receptors (Homo sapiens, UniProt P32238); details: de Montigny 1989; cited from earlier work
T1 sequence (P32238 1-428): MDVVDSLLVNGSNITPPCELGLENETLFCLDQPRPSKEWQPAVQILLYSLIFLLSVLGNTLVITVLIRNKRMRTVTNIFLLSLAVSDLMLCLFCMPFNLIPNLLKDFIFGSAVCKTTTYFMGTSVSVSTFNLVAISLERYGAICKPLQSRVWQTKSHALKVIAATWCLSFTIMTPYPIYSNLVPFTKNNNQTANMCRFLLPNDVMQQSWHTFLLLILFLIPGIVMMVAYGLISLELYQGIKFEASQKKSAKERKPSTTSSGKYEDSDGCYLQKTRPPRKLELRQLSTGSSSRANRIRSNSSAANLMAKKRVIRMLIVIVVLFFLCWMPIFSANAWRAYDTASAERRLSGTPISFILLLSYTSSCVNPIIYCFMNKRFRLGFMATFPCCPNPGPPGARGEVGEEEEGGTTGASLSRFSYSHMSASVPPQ

For `O[C@H](CS)[C@H](O)CS` (racemic) [dithiothreitol], the “increase in absorption and biliary recovery of a tripeptide over control rats” value ([1]; ileum) is given as “four-fold” and the “increase in absorption and biliary recovery of a tripeptide over control rats” value ([1]; proximal colon) is given as 70 fold.

In the case of “Asp-Tyr(SO3H)-Met-Gly-Trp-Met-Asp-Phe-NH2 [CCK-8]”, the “CCK-8 level (plasma)” value ([2]; Individual #1, 10 minutes post-ingestion, one enteric-coated capsule with 9.2 micrograms CCK-8 and an enzyme inhibitor, fasting) is reported as 3.268 picomoles/liter (pm/L), the “CCK-8 level (plasma)” value ([2]; Individual #1, remaining 5 measurements (every 10 minutes up to one hour), 9.2 micrograms capsule with enzyme inhibitor) is reported as “detected no CCK-8” and the “CCK-8 level (plasma)” value ([2]; Individual #2, 10 minutes post-ingestion, 9.2 micrograms capsule with enzyme inhibitor, fasting) is reported as 0.7625 pm/L. The “CCK-8 level (plasma)” value ([2]; Individual #2, 20 minutes, 9.2 micrograms capsule with enzyme inhibitor, fasting) was 3.326 pm/L, the “CCK-8 level (plasma)” value ([2]; Individual #2, next 4 measurements (30-60 minutes)) was “detected no CCK-8” and the “CCK-8 level (plasma)” value ([2]; Individual #3 (BMI 24), 10 minutes post-ingestion, 9.2 micrograms capsule with enzyme inhibitor, fasting) was 0.0 pm/L. For the same compound, the “CCK-8 level (plasma)” value ([2]; Individual #3 (BMI 24), 20 minutes, 9.2 micrograms capsule with enzyme inhibitor, fasting) was 4.375 pm/L, the “CCK-8 level (plasma)” value ([2]; Individual #3, next 4 measurements (30-60 minutes)) was “detected no CCK-8” and the oral bio-availability [3] was “less than 1%”. For the same compound, the “more potent than unsulfated CCK-8 or CCK-4 in stimulating pancreatic amylase secretion” value [4] was “approximately 1000 fold”.

In the case of “CCK-4: the tetrapeptide, CCK-4 (CCK30-33)”, the “lower affinity for CCKA receptors than the sulfated form of CCK-8” value [5] is listed as 10,000 fold.
